{
  "source": "patent EP0162545A2",
  "about": "“Enhanced bioconversion processes” (BETZ EUROPE, INC., priority 1984, dated 1985)",
  "tested_on": "Klebsiella",
  "test": "Total organic carbon removal in nutrient broth shake flasks",
  "format": "cell-based",
  "details": "for % Org. Carbon Removal / Tot. Inorg. Carbon / Tot. Org. Carbon / Total Carbon: 5 Hours",
  "experimental": "Experiments to look at the above conclusions in depth were performed. In these experiments, cultures of Klebsiella were challenged with various concentrations of BNS and the effects on C02 evolution from glucose, viability, TOC (Total Organic Carbon), TIC (Total Inorganic Carbon) production, removal, and DO (Dissolved Oxygen) removal were determined. Concentrations of BNS from 0.05 to 100 µg/mL were used. […] CO2 evolution decreased after 5 gg/mL. […] The viability dropped off after that with 99% inhibition at concentrations somewhere between 10 - 20 µg/mL. Organic carbon removal gave the most puzzling pattern. […] CO2 was produced, however, as reflected by the C02 blowoff experiments and the TIC data. The organic carbon being oxidized (removed) must have been cancelled out by an organic carbon addition caused by limited bacterial lysis. This phenomenon was investigated again. […] It appeared that 5 ppm BNS would be the maximum concentration that could be used for the desired effect, with the majority of favorable results occurring in the 0.05 - 2 ppm range.\nThe experiments coordinating the measurements of C02 evolution, TOC reduction, viable count, and dissolved oxygen (DO) reduction were performed as follows: C02 evolution by Klebsiella was measured as described previously using a narrowed set of BNS concentrations. At the same time, Klebsiella cells grown overnight in nutrient broth were standardized into an inoculum of 250 Klett units. These cells were used to inoculate 19 mL quantities of fresh nutrient broth (1 mL inoculum) in baffled shake flasks. These shake flasks were placed into water bath shakers at 37°C and allowed to shake for 5 hours. Concentrations of BNS equivalent to the C02 blowoff experiment were added to the flasks at the beginning of the experiment. Controls containing no BNS were included for comparisons. Total organic carbon measurements were taken after 5 hours incubation. Viable counts were done at 1 hour, 3 hours, and 5 hours. A parallel experiment was performed using the same setup except that after BNS additions, the flasks were shaken for 30 minutes and then held stationary. DO measurements were taken at 5 hours incubation with the use of a YSI Model 54A oxygen meter.",
  "data": [
    {"molecule": "O=[N+]([O-])C(Br)=Cc1ccccc1", "note": "[BNS, beta-bromo-beta-nitrostyrene]", "values": [
      {"measurement": "% Org. Carbon Removal", "setting": "BNS 0.05 µg/mL", "result": 37, "unit": "%"},
      {"measurement": "Tot. Inorg. Carbon", "setting": "BNS 0.05 µg/mL", "result": 145, "unit": "µg/mL"},
      {"measurement": "Tot. Org. Carbon", "setting": "BNS 0.05 µg/mL", "result": "2,205 µg/mL"},
      {"measurement": "Total Carbon", "setting": "BNS 0.05 µg/mL", "result": "2,350 µg/mL"},
      {"measurement": "% Org. Carbon Removal", "setting": "BNS 0.1 µg/mL", "result": "+9%"},
      {"measurement": "Tot. Inorg. Carbon", "setting": "BNS 0.1 µg/mL", "result": 155, "unit": "µg/mL"},
      {"measurement": "Tot. Org. Carbon", "setting": "BNS 0.1 µg/mL", "result": "3,845 µg/mL"},
      {"measurement": "Total Carbon", "setting": "BNS 0.1 µg/mL", "result": "4,000 µg/mL"},
      {"measurement": "% Org. Carbon Removal", "setting": "BNS 0.5 µg/mL", "result": 1, "unit": "%"},
      {"measurement": "Tot. Inorg. Carbon", "setting": "BNS 0.5 µg/mL", "result": 145, "unit": "µg/mL"},
      {"measurement": "Tot. Org. Carbon", "setting": "BNS 0.5 µg/mL", "result": "3,455 µg/mL"},
      {"measurement": "Total Carbon", "setting": "BNS 0.5 µg/mL", "result": "3,600 µg/mL"},
      {"measurement": "% Org. Carbon Removal", "setting": "BNS 1.0 µg/mL", "result": 6, "unit": "%"},
      {"measurement": "Tot. Inorg. Carbon", "setting": "BNS 1.0 µg/mL", "result": 120, "unit": "µg/mL"},
      {"measurement": "Tot. Org. Carbon", "setting": "BNS 1.0 µg/mL", "result": "3,280 µg/mL"},
      {"measurement": "Total Carbon", "setting": "BNS 1.0 µg/mL", "result": "3,400 µg/mL"},
      {"measurement": "% Org. Carbon Removal", "setting": "BNS 2 µg/mL", "result": "+16%"},
      {"measurement": "Tot. Inorg. Carbon", "setting": "BNS 2 µg/mL", "result": 96, "unit": "µg/mL"},
      {"measurement": "Tot. Org. Carbon", "setting": "BNS 2 µg/mL", "result": "4,054 µg/mL"},
      {"measurement": "Total Carbon", "setting": "BNS 2 µg/mL", "result": "4,150 µg/mL"},
      {"measurement": "% Org. Carbon Removal", "setting": "BNS 5 µg/mL", "result": "+35%"},
      {"measurement": "Tot. Inorg. Carbon", "setting": "BNS 5 µg/mL", "result": 63, "unit": "µg/mL"},
      {"measurement": "Tot. Org. Carbon", "setting": "BNS 5 µg/mL", "result": "4,737 µg/mL"},
      {"measurement": "Total Carbon", "setting": "BNS 5 µg/mL", "result": "4,800 µg/mL"},
      {"measurement": "% Org. Carbon Removal", "setting": "BNS 10 µg/mL", "result": "+11%"},
      {"measurement": "Tot. Inorg. Carbon", "setting": "BNS 10 µg/mL", "result": 12, "unit": "µg/mL"},
      {"measurement": "Tot. Org. Carbon", "setting": "BNS 10 µg/mL", "result": "3,888 µg/mL"},
      {"measurement": "Total Carbon", "setting": "BNS 10 µg/mL", "result": "3,900 µg/mL"},
      {"measurement": "% Org. Carbon Removal", "setting": "BNS 20 µg/mL", "result": "+19%"},
      {"measurement": "Tot. Inorg. Carbon", "setting": "BNS 20 µg/mL", "result": 9, "unit": "µg/mL"},
      {"measurement": "Tot. Org. Carbon", "setting": "BNS 20 µg/mL", "result": "4,191 µg/mL"},
      {"measurement": "Total Carbon", "setting": "BNS 20 µg/mL", "result": "4,200 µg/mL"},
      {"measurement": "% Org. Carbon Removal", "setting": "BNS 50 µg/mL", "result": "+31%"},
      {"measurement": "Tot. Inorg. Carbon", "setting": "BNS 50 µg/mL", "result": 7, "unit": "µg/mL"},
      {"measurement": "Tot. Org. Carbon", "setting": "BNS 50 µg/mL", "result": "4,593 µg/mL"},
      {"measurement": "Total Carbon", "setting": "BNS 50 µg/mL", "result": "4,600 µg/mL"},
      {"measurement": "% Org. Carbon Removal", "setting": "BNS 100 µg/mL", "result": "+102%"},
      {"measurement": "Tot. Inorg. Carbon", "setting": "BNS 100 µg/mL", "result": 7, "unit": "µg/mL"},
      {"measurement": "Tot. Org. Carbon", "setting": "BNS 100 µg/mL", "result": "7,093 µg/mL"},
      {"measurement": "Total Carbon", "setting": "BNS 100 µg/mL", "result": "7,100 µg/mL"},
      {"measurement": "concentrations resulting in increases in TOC", "setting": "nutrient broth, 5 hours", "result": "≥ 2", "unit": "µg/mL"}
    ]}
  ]
}
